Experimental data taken from patent US10526579B2, “Podocyte cultures and uses thereof” (RUSH UNIVERSITY MEDICAL CENTER, priority 2013, dated 2020).

Key:
[1] = system: cultured podocytes; assay: High-content F-actin stress fiber assay in cultured differentiated podocytes (phalloidin stain); type: cell-based, murine; conditions: 48 h at 37° C., 96-well plates
Protocol: (§1) A dose-response curve showing the effects of increasing concentration of podocyte injuring drug puromycin aminonucleoside (PAN) on various cellular parameters, including the intensity and the number of actin fibers, in cultured podocytes. Differentiated podocytes were cultured in 96-well multiwell plates. Cells were either kept in normal cell culture media or were treated with increasing concentration of PAN for 48 h at 37° C. Subsequently, the cells were fixed with paraformaldehyde and the filamentous actin (F-actin) fibers stained using Alexa Fluor 594-labeled phalloidin. Cells were imaged using PerkinElmer OPERA High-content screening microscope and the images were analyzed using PerkinElmer Columbus analysis system to count F-actin fibers per cell in each well of the multiwell plate. FIGS. 4A and 4B show representative images of untreated (A) and PAN-treated (B) podocytes. […] These two parameters also gave a reproducible IC50 value for PAN as an in vitro podocyte damaging agent. Each data point represents average F-actin fiber count per cell (from approximately 500-2000 cells/well) from a single well.
FIG. 5. […] Cells were imaged using PerkinElmer OPERA High-content screening microscope and the images were analyzed using PerkinElmer Columbus analysis system to count F-actin fibers per cell in each well of the multiwell plate. […]

[2] = system: cultured podocytes; assay: High-content focal adhesion assay in cultured differentiated podocytes (anti-paxillin stain); type: cell-based, murine; conditions: 48 h at 37° C., 96-well plates
Protocol: as §1, with “FIG. 6. […]” for “A dose-response curve showing the effects of increasing concentration of podocyte injuring drug puromycin aminonucleoside (PAN) on various cellular parameters, including the intensity and the number of actin fibers, in cultured podocytes.”, “focal adhesions were” for “filamentous actin (F-actin) fibers”, “an anti-paxillin antibody.” for “Alexa Fluor 594-labeled phalloidin.”, “6A” for “4A”, “6B” for “4B”, “average” for “average F-actin fiber”
FIG. 7. Focal adhesion protection with Mizouribine. […] Cells were imaged using PerkinElmer OPERA High-content screening microscope and the images were analyzed using PerkinElmer Columbus analysis system to count F-actin fibers per cell in each well of the multiwell plate. […] The method allowed quantitative assessment of podocyte protection in a dose-response fashion using these parameters based on the podocyte focal adhesions when treated with the compounds PAN and mizouribine. […]

[3] = co-treatment with PAN and increasing concentration of mizouribine
[4] = increasing concentration of PAN

Structure (SMILES) | protection of podocyte actin fibers from PAN damage [1, 3] | protection of podocyte focal adhesions from PAN damage [2, 3] | effect on intensity and number of actin fibers (relative spot to background intensity; whole cell fibers - number of objects) [1, 4] | effect on number and intensity of focal adhesions (relative spot to background intensity; FA - number of objects) [2, 4]
NC(=O)c1ncn([C@@H]2O[C@H](CO)[C@@H](O)[C@H]2O)c1O [Mizouribine, mizouribine] | dose-dependently prevents podocyte damage | protects the focal adhesions from PAN damage | – | –
CN(C)c1ncnc2c1ncn2[C@@H]1O[C@H](CO)[C@@H](N)[C@H]1O [PAN, puromycin aminonucleoside] | – | – | podocyte damage in a dose-response fashion | leads to reduced focal adhesions
